Patent US6608082B1, “Treatment of erectile dysfunction using isoquinoline compound melanocortin receptor ligands” (Lion Bioscience AG, priority 1998, dated 2003)
Values belong to the compound of their own block, whether it stands above or below them.

Key:
IL-10 = assay: Increasing levels of IL-10 in mice (plasma ELISA); format: in vivo; conditions: IP, mouse plasma, 90 or 105 minutes; for % IL-10 Induction, IP 30: 30 μg per mouse; for % IL-10 Induction, IP 300: 300 μg per mouse
Experimental: Isoquinoline compounds were administered intraperitoneally to mice in doses of 30, 100 or 300 μg/mouse or orally in doses of 300 or 600 μg/mouse. Levels of IL-10 were measured 90 or 105 minutes after administration as indicated. Samples were collected and diluted, when appropriate, as described in Example VI. A 100 μl sample of plasma was assayed by ELISA for IL-10. Briefly, ELISA plates were coated with rat anti-mouse IL-10 monoclonal antibody (Pharmingen; San Diego Calif.). Samples or known concentrations of IL-10 were added to the coated plates and incubated for 2 hr at 37° C. Plates were washed and incubated with biotinylated rat anti-mouse IL-10 (R&D Systems; Minneapolis Minn.) for 1 hr at 37° C. Plates were washed and incubated with streptavidin-HRP 30 min at 37° C., and HRP activity was detected with hydrogen peroxide and TMB using standard immunoassay procedures.

TNF-α = assay: Reduction of lipopolysaccharide-induced tumor necrosis factor levels in mice; format: in vivo, BALB/c female mice; conditions: IP, plasma 90 or 105 minutes after LPS, mean ± SEM; for % TNF-α Inhibtion, IP 30: 30 μg per mouse; for % TNF-α Inhibtion, IP 300: 300 μg per mouse
Experimental: BALB/c female mice weighing approximately 20 g were placed into a control group and a treated group. Five mg/kg of LPS in 0.9% saline was administered (100 μl to give 100 μg LPS per mouse) by intraperitoneal (IP) injection to all mice. Mice in the treatment group received either 30, 100, 300 or 600 μg of various isoquinoline compounds per mouse in a volume of 100 μl of PBS. Control mice received 100 μl of saline alone. One minute after initial injections all mice received the LPS injection. As a positive control, 100 μg of HP 228 was injected per mouse.
Blood samples were collected from the orbital sinus of treated and control mice 90 minutes or 105 minutes after LPS administration. The plasma was separated by centrifugation at 3000×g for 5 min and stored at −20° C. Samples were thawed and diluted, if TNF-α concentration was greater than 3200 pg/ml, with PBS containing 1% bovine serum albumin, 10% donor horse serum, 1% normal mouse serum, 0.05% TWEEN-20 and 0.05% thimerosal. A 100 μl sample of plasma was assayed by ELISA for TNF-α. Briefly, ELISA plates were coated with hamster anti-mouse TNF-α antibody (Genzyme; Cambridge Mass.). Samples or known concentrations of TNF-α were added to the coated plates and incubated for 2 hr at 37° C. Plates were washed and subsequently incubated with biotinylated rabbit anti-mouse TNG-α for 1 hr at 37° C. Plates were washed and incubated with streptavidin-HRP for 1 hr at 37° C., and HRP activity was detected with hydrogen peroxide and o-phenylenediamine (OPD) using standard immunoassay procedures.
The mean (±SEM) TNF-α level in five mice from each group was determined and the percent reduction in TNF-α levels was calculated.

MCR-1 = molecular target: T1, MCR-1 (Homo sapiens, UniProt Q01726); assay: Melanocortin receptor binding assay, competition with 125I-HP 467, HEK 293 cells expressing hMCR-1; conditions: 10 μM isoquinoline compound
T1 construct: expressed in transfected cells; host or cells: HEK 293
Summary of the method: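 Test compounds compete on intact HEK 293 cells carrying hMCR-1 (2×10^4 per tube) or hMCR-4 (4×10^3 per tube), suspended in PBS, 10% calf serum, 1 mM CaCl2.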

MCR-3 = molecular target: T2, MCR-3 (Homo sapiens, UniProt P41968); assay: Melanocortin receptor binding assay, competition with 125I-HP 467, HEK 293 cells expressing hMCR-3; conditions: binding to MCR-3, HEK 293 cells; read-out: MC-3 IC50
T2 construct: expressed in transfected cells; host or cells: HEK 293
Text: (§1) All cell culture media and reagents were obtained from GibcoBRL (Gaithersburg Md.), except for COSMIC CALF SERUM (HyClone; Logan Utah). HEK-293 cell lines were transfected with the human MC receptors hMCR-1, hMCR-3, and hMCR-4 (Gantz et al., Biochem. Biophys. Res. Comm. 200:1214-1220 (1994); Gantz et al., J. Biol. Chem. 268:8246-8250 (1993); Gantz et al. J. Biol. Chem. 268:15174-15179 (1993); Haskell-Leuvano et al., Biochem. Biophys. Res. Comm. 204:1137-1142 (1994); each of which is incorporated herein by reference). Vectors for construction of an hMCR-5 expressing cell line were obtained, and a line of HEK 293 cells expressing hMCR-5 was constructed (Gantz, supra, 1994). hMCR-5 has been described previously (Franberg et al., Biochem. Biophys. Res. Commun. 236:489-492 (1997); Chowdhary et al., Cytogenet. Cell Genet. 68:1-2 (1995); Chowdhary et al., Cytogenet. Cell Genet. 68:79-81 (1995), each of which is incorporated herein by reference). HEK 293 cells were maintained in DMEM, 25 mM HEPES, 2 mM glutamine, non-essential amino acids, vitamins, sodium pyruvate, 10% COSMIC CALF SERUM, 100 units/ml penicillin, 100 μg/ml streptomycin and 0.2 mg/ml G418 to maintain selection.
(§2) Before assaying, cells were washed once with phosphate buffered saline (“PBS”; without Ca^2+ and Mg^2+), and stripped from the flasks using 0.25% trypsin and 0.5 mM EDTA. Cells were suspended in PBS, 10% COSMIC CALF SERUM and 1 mM CaCl2. Cell suspensions were prepared at a density of 2×10^4 cells/ml for HEK 293 cells expressing hMCR-3, hMCR-4 or hMCR-5, and 1×10^5 cells/ml for HEK 293 cells expressing hMCR-1. Suspensions were placed in a water bath and allowed to warm to 37° C. for 1 hr.
(§3) Binding assays were performed in a total volume of 250 μl for HEK 293 cells. Control and test compounds were dissolved in distilled water. ^125I-HP 467 (50,000 dpm) (2000 Ci/mmol) (custom labeled by Amersham; Arlington Heights Ill.) was prepared in 50 mM Tris, pH 7.4, 2 mg/ml BSA, 10 mM CaCl2, 5 mM MgCl2, 2 mM EDTA and added to each tube. To each tube was added 4×10^3 HEK 293 cells expressing hMCR-3, hMCR-4 or hMCR-5, or 2×10^4 cells expressing hMCR-1. Assays were incubated for 2.5 hr at 37° C.
(§4) GF/B filter plates were prepared by soaking for at least one hour in 5 mg/ml BSA and 10 mM CaCl2. Assays were filtered using a Brandel 96-well cell harvester (Brandel Inc.; Gaithersburg, Md.). The filters were washed four times with cold 50 mM Tris, pH 7.4, the filter plates were dehydrated for 2 hr and 35 μl of MICROSCINT was added to each well. Filter plates were counted using a Packard Topcount (Packard Instrument Co.) and data analyzed using GraphPad PRISM v2.0 (GraphPad Software Inc.; San Diego Calif.) and Microsoft EXCEL v5.0a (Microsoft Corp.; Redmond Wash.).
(§5) To assay isoquinoline compounds, binding assays were performed in duplicate in a 96 well format. HP 467 was prepared in 50 mM Tris, pH 7.4, and ^125I-HP 467 was diluted to give 100,000 dpm per 50 μl. An isoquinoline compound, synthesized as described in Example I, was added to the well in 25 μl aliquots. A 25 μl aliquot of ^125I-HP 467 was added to each well. A 0.2 ml aliquot of suspended cells was added to each well to give the cell numbers indicate above, and the cells were incubated at 37° C. for 2.5 hr. Cells were harvested on GF/B filter plates as described above and counted.
(§6) Some of the isoquinoline compounds were further tested for binding to MCR-3 and MCR-5.

MCR-5 = molecular target: T3, MCR-5 (Homo sapiens, UniProt P33032); assay: Melanocortin receptor binding assay, competition with 125I-HP 467, HEK 293 cells expressing hMCR-5; conditions: binding to MCR-5, HEK 293 cells; read-out: MC-5 IC50
T3 construct: expressed in transfected cells; host or cells: HEK 293
Text: as §1, §2, §3, §4, §5, §6

[1] = test system: arachidonic acid induced dermal inflammation; assay: Arachidonic acid induced dermal inflammation (ear thickness); format: in vivo, Female BALB/c mice
Experimental: Female BALB/c mice (17-22 g) were used and administered the test isoquinoline compounds or positive control compounds 30 to 60 min prior to topical application of arachidonic acid. Indomethacin and HP 228 were used as positive controls. Compounds were administered orally (p.o.) or intraperitoneally (i.p.). Initial ear thickness (left and right) was measured using spring loaded micro-calipers. Arachidonic acid was applied to mice anesthetized with a cocktail of ketamine/xylazine (7.0 mg/ml and 0.6 mg/ml, respectively) administered i.p. (300 μl/mouse). Utilizing a micro-pipette, 20 μl of arachidonic acid solution (100 mg/ml ethanol or acetone) was applied to the right ear (10 μl to inner and 10 μl to outer surfaces of […] for a total of 2 mg arachidonic acid per right ear), and 20 μl of vehicle (ethanol or acetone) was applied to the left ear. Mice were returned to their cages to recover. Mice were again anesthetized 50 min after arachidonic acid application and their ears measured.
Dermal inflammation was determined by subtracting the difference of the vehicle treated left ear (L60−L0) from the difference of the arachidonic acid treated right ear (R60−R0). Ear thickness measurements were averaged for each group, and the responses in the vehicle treated control group (Cr; saline or PBS) were subtracted from the response noted in the isoquinoline compound treated group (Tr) to give the relative inflammatory response for each treatment group compared to the control group. The percent inhibition is defined by the equation: % inhibition=(Cr−Tr)/(Cr)×100.

[2] = Body weight and food consumption after i.p. administration; format: in vivo, Sprague-Dawley rats; conditions: rats, 5 mg/kg i.p., 18 hours after injection; FIG. 6
Text: Adult male Sprague-Dawley rats (175-225 g) were used to assess the effect of isoquinoline compounds on food uptake and body weight. Baseline body weight and food consumption measurements were taken for 3 days prior to start of the study (Day 0). On Day −1, the food was taken away from the animals at 5:00 PM. The next morning (Day 0), body weight measurements were taken, and the animals were divided into treatment groups with 6 animals in each group. The treatment groups were saline control, HP 228 positive control and test isoquinoline compounds. Saline was administered i.p. at 1 ml/kg. HP 228 and test isoquinoline compounds were administered i.p. at 5 mg/kg. The injections were initiated at 2:00 PM on Day 0.
Body weight and food consumption measurements were taken at 9 hr (Day 0; 11:00 PM) and at 18 hr (Day 1, 8:00 AM) after injection. At the end of the study, all evaluated parameters (9 and 18 hour body weight and food consumption) were analyzed by standard statistical methods. Significance (P<0.05) was determined by one-way ANOVA, ANOVA for repeated measures, or Student's t-test.
The level of reduction was similar to that seen with HP 228.

T1 sequence (Q01726 whole entry): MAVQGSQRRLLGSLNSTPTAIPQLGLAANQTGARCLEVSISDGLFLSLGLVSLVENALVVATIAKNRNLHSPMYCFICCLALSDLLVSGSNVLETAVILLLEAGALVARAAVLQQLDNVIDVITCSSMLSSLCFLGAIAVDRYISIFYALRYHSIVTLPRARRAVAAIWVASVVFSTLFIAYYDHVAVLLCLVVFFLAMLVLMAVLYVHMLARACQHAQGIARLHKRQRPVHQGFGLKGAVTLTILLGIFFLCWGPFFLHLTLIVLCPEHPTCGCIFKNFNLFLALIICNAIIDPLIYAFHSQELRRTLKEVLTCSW
T3 sequence (P33032 whole entry): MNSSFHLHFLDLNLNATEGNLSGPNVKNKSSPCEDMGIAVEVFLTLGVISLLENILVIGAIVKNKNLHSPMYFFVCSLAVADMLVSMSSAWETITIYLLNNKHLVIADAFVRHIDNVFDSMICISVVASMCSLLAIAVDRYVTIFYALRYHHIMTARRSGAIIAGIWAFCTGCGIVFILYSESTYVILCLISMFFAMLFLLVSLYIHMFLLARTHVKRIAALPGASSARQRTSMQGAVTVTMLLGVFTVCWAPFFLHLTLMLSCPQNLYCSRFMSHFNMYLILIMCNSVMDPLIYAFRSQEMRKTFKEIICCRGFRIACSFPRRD
T2 sequence (P41968 whole entry): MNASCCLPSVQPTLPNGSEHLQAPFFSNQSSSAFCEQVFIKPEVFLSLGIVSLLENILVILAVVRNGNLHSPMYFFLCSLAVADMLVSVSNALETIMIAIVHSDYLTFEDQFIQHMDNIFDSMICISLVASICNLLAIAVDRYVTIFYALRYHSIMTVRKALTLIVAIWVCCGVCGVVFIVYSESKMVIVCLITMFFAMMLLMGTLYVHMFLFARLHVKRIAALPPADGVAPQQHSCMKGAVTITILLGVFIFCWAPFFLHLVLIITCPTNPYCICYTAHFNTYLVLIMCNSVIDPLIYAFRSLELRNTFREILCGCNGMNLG

Compound: CNC(CN)CCCCN1Cc2ccccc2C(CNC2CCCCC2)C1c1ccc(OC)c(S(=O)(=O)O)c1 (stereo not drawn) [TRG 2405-268]
- % IL-10 Induction, IP 30 (IL-10): −3 ± 16%
- % IL-10 Induction, IP 300 (IL-10): 6 ± 17%
- % TNF-α Inhibtion, IP 30 (TNF-α): −58 ± 18%
- % TNF-α Inhibtion, IP 300 (TNF-α): 9 ± 23%
- % Disp. of 125I-HP 467 (first of duplicate) (MCR-1; HEK 293 cells expressing MCR-1, duplicate 1): 0%
- % Disp. of 125I-HP 467 (second of duplicate) (MCR-1; HEK 293 cells expressing MCR-1, duplicate 2): 3.6%

- IC50 (MCR-3): 20.9 µM
- IC50 (MCR-5): 4.16 µM
Compound: CCNc1ccc(C2C(CNC3CCCC3)c3ccccc3CN2CCCCC(CN)NC)cc1 (stereo not drawn) [TRG 2407-67]
- % IL-10 Induction, IP 30 (IL-10): −3 ± 15%
- % IL-10 Induction, IP 300 (IL-10): 29 ± 8%
- % TNF-α Inhibtion, IP 30 (TNF-α): 8 ± 14%
- % TNF-α Inhibtion, IP 300 (TNF-α): 73 ± 3 %

Compound: COc1ccc2c(c1)c(CC(=O)O)c(C)n2C(=O)c1ccc(Cl)cc1 [indomethacin, reference compound]
- inhibition of arachidonic acid induced dermal inflammation ([1]; administered orally, TRG 2405-241 600 μg/mouse, indomethacin 1 mg/mouse, FIG. 2): inhibition of arachidonic acid induced dermal inflammation

Compound: Ac-Nle-Gln-His-(D)Phe-Arg-(D)Trp-Gly-NH2 [HP 228, reference compound]
- inhibition of arachidonic acid induced dermal inflammation ([1]; 100 μg/mouse administered intraperitoneally, FIG. 4): inhibition of arachidonic acid induced dermal inflammation
- inhibition of arachidonic acid induced dermal inflammation ([1]; administered intraperitoneally, TRG 2405-241 300 μg/mouse, HP 228 100 μg/mouse, FIG. 3): inhibition of arachidonic acid induced dermal inflammation
- reduction in the level of arachidonic acid-induced dermal inflammation ([1]; intraperitoneally, HP 228 100 μg/mouse, TRG 2409-2 or TRG 2409-14 100 or 300 μg/mouse, FIG. 5): reduction
- food consumption [2]: reduction
- weight gain [2]: reduction
